Laboratory results published in US20240002441A1, “PEPTIDES AND USES THEREOF IN MODULATION OF AMYLOID-BETA PROTEIN DEGRADING PROTEASES” (priority 2020, published 2024).

Key:
[1] = system: Ang II-induced expression of IL-6 and Collagen III in EA.hy926 cells; assay: Ang II-induced expression of IL-6 and Collagen III in EA.hy926 cells, western blotting (Example 9); type: cell-based
Method: EA.hy926 cells (passage 40) were seeded at a density of 1×10^6 cells/mL. After 24 hours, cells were incubated overnight in reduced serum media. Cells were then treated over 24 h as follows: • 1. Vehicle control • 2. Ang II (10 nM) • 3. […] Ang II (10 nM)+rhACE2 (0.05 ng/μL) • 5.
Following incubation, cells were lysed using lysis buffer (Thermo Fisher Scientific, Cat #89900) containing 1% protease inhibitor (Thermo Fisher Scientific, Cat #1861278). Cell lysate was centrifuged at 13,000 rpm for 10 min. Protein concentration in the supernatant was determined by NanoDrop (Thermo Fisher Scientific, Cat #ND-1000). Supernatants were stored at −30° C. until analysed.
Samples were diluted in SDS-PAGE reducing sample buffer (Bio-Rad Laboratories, Cat #1610747; California, USA) containing 1% β-mercaptoethanol (Bio-Rad Laboratories, Cat #221610710) to reach a final concentration of […]. Prior to loading, samples were heated at 95° C. for 5 min. Samples were loaded into the wells alongside the molecular weight marker (Life Technologies, Cat #LC5800; California, USA). Electrophoresis was conducted at 200 V for 40 min in 1× running buffer. Following protein separation by SDS-PAGE, proteins were blotted onto nitrocellulose membranes at 100 V for 1 h in 1× transfer buffer. The membranes were then blocked in 5% skim milk in 1× Tris-buffered saline (TBST) containing 0.05% Tween 20 (Thermo Fisher Scientific, Cat #28352) for 1 h at room temperature. The membranes were incubated with IL-6 (1:500; Thermo Fisher Scientific, Cat #700480) or collagen III (1:500; Invitrogen, Cat #PA5-27828) primary antibodies while rocking at 4° C. overnight. Membranes were then probed with secondary antibody conjugated with horseradish peroxidase (HRP) (1:6000) for 1 h at room temperature. The HRP-labelled proteins were detected using chemiluminescence SuperSignal™ ECL Western Blotting Substrate (Thermo Fisher Scientific, Cat #34577) at 1:1 ratio. Beta-actin was used as a loading control. Protein bands were analysed using ImageJ (version 1.51) and band density was normalised with the respective beta-actin.

NEP [2] = biological target: T1, NEP (Homo sapiens, UniProt P08473); assay: Cleavage of synthetic Aβ40 by NEP, LCMS (Example 7); type: biochemical; conditions: peptide 9 μM
T1 construct: purchased R & D systems 1182-ZNC-010
T1 sequence (P08473 whole entry): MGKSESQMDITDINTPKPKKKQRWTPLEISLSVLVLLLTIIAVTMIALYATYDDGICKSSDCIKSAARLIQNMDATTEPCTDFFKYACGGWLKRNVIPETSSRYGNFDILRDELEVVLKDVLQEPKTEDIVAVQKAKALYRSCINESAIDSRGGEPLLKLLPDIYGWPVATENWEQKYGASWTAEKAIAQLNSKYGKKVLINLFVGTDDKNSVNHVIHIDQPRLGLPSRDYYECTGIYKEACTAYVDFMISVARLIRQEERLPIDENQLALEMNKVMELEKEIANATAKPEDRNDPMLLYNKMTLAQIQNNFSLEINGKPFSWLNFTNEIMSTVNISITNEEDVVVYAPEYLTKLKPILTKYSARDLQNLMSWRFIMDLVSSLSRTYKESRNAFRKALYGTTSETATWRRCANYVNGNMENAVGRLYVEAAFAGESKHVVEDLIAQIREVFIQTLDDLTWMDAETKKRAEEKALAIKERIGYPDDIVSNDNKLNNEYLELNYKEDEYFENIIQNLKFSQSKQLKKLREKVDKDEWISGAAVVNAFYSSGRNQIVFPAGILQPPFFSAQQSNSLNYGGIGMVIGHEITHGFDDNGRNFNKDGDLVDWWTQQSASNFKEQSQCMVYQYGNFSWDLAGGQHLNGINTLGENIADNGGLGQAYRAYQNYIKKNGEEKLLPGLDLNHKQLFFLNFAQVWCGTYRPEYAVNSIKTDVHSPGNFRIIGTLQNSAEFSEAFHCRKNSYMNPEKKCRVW
Method: Synthetic Aβ40 (0.10 μg/μL) was added to a reaction mixture containing NEP (0.05 ng/μL) pre-incubated with SEQ ID NO:2 or scrambled control (9 μM) for 1 h at 37° C. Synthetic Aβ42 (0.05 μg/μL) was added to a reaction mixture containing NEP (0.15 ng/μL) preincubated with either scrambled control or SEQ ID NO:2 (9 μM) for 1 h at 37° C. Samples containing enzyme alone had only NEP buffer (Table 2). The cleavage reaction was allowed to continue in a thermomixer at 37° C. Aliquots of equal volume were taken over 24 h. Aliquots were immediately acidified with 0.1% trifluoroacetic acid (TFA) to terminate enzyme activity and snap frozen in dry ice. Samples were stored at −80° C. until analysed by LCMS.
Samples were analysed by LC-MS/MS using a quadrupole TOF mass spectrometer (MicroTOFq, Bruker Daltonics, Bremen, Germany) coupled online with a 1200 series nano-HPLC (Agilent technologies, Santa Clara, CA, USA). Samples were injected onto a zorbax 300SB reversed phase trap column with 95% solvent A (0.1% formic acid) at a flow rate of 10 μL/minute. The peptides were eluted over a 10-min gradient to 70% solvent B (80% acetonitrile, 0.1% formic acid) and separated on a 15-cm, 75-μmID zorbax 300SB nanocolumn. The eluent was nebulised and ionised using the Bruker nano-ESI source with a capillary voltage of 4500 V, dry gas at 180° C., flow rate of 5 L/minute and nebuliser gas pressure at 300 mbar. The MS acquisition was in selected ion monitoring mode after selected ion extraction of the MS spectra. Prior to analysis, the qTOF mass spectrometer was calibrated using a 1:50 dilution tuning mix (Agilent technologies, Santa Clara, CA, USA). Data from MS run were processed in Skyline version 19.1.0.193 (Uni. Of Washington, WA, USA) to perform ion chromatogram extractions and peak integrations.

NEP [3] = biological target: T1, NEP; assay: QFS plate reader enzyme assay, peptide screen on NEP activity (Example 3); type: biochemical; conditions: peptide 10 ng/μL, NEP 0.05 ng/μL, 1 h at 37° C.; compared to enzyme alone
Method: (§1) Plate reader-based enzyme assays were performed using a quenched fluorescent substrate (QFS) in a 96-well format using a SpectraMAX M4 Microplate reader (Molecular Devices). The increase in fluorescence following addition of QFS (40 μM) was taken as evidence of enzyme activity. Fluorescence was monitored over 2 h at 37° C. using κEx=320 nm and λEm=405 nm. Assays were conducted in black 96-well plates. Specific enzyme activity was expressed as a rate of substrate cleavage calculated using a standard curve of 7-methoxy-coumarin-4-acetic acid.
(§2) In all plate reader-based enzyme assays using QFS, the reaction rate (μmol of substrate cleaved/min) was calculated using linear regression analysis (GraphPad Prism software version 8.01). The reaction rates calculated were used to generate the enzyme kinetic parameters Vmax and Km through non-linear regression analysis (GraphPad Prism software, version 8.01; Michaelis-Menten equation). Where indicated, enzyme activity in the presence of peptide was expressed as a % of the enzyme alone. Data were expressed as mean±SEM and statistical significance was determined using t-tests or one-way ANOVAs followed by Tukey's post-hoc test. P<0.05 was considered as statistically significant. In all assays conducted using 96-well plates, the reaction mixtures in each well were considered an independent experiment.
(§3) SEQ ID NOS: 1, 5 and 9-15 were screened for their effects on NEP and ECE1 using a high-throughput QFS assay using the method in Example 2 and the following procedure. NEP or ECE1 (0.05 ng/μL) was incubated with each peptide (10 ng/μL) for 1 h at 37° C.

ECE1 [4] = biological target: T2, ECE1 (Homo sapiens, UniProt P42892); assay: QFS plate reader enzyme assay, peptide screen on ECE1 activity (Example 3); type: biochemical; conditions: peptide 10 ng/μL, ECE1 0.05 ng/μL, 1 h at 37° C.; compared to enzyme alone
T2 construct: purchased R & D systems 1784-ZN-010
T2 sequence (P42892 1-770): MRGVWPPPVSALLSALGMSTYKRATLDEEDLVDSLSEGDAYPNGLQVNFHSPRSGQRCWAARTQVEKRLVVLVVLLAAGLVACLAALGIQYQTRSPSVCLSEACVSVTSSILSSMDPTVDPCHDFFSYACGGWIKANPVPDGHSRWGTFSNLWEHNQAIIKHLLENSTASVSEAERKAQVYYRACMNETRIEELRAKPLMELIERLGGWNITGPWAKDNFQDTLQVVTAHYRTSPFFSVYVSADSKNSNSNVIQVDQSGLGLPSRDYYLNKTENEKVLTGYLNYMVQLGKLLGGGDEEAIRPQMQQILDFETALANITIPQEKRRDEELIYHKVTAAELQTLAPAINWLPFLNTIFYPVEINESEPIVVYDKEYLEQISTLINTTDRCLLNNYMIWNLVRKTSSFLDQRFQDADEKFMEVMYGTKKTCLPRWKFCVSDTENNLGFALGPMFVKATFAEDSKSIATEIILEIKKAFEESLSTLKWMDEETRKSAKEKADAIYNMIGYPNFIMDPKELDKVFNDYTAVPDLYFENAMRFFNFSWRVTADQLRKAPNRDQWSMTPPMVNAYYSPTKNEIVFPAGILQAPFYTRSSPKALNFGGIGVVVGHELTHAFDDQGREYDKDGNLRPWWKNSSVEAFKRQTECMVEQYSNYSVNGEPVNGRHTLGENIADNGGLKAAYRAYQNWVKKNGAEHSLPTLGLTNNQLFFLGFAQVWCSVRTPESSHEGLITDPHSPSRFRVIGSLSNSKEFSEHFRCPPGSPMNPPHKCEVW
Method: as §1, §2, §3

HEK293 cells = assay: Peptide stability study in HEK293 cells, LCMS (Example 4); type: in vitro ADME; conditions: peptide 9 μM, Opti-MEM, 60 min
Method: (§4) SEQ ID NO:2 was prepared as a C-terminal amidated analogue of SEQ ID NO:1. The stability of SEQ ID NO:1 and SEQ ID NO:2 was assessed in HEK293 and EA.hy926 cells grown in culture and their break down was monitored by LCMS over 60 min using the following procedure.
(§5) HEK293 (passage 24) or Ea.hy926 (passage 37) were seeded into tissue-culture-grade 96-well plates at a density of 20,000 cells/well. After 24 hr, cells were washed with PBS and replaced with Opti-MEM reduced serum media containing SEQ ID NO:1 or SEQ ID NO:2 (9 μM). Aliquots of equal volume were taken at T=0 and 60 min. SEQ ID NO:2 was added to control wells having media (no cells) only. Samples were immediately acidified in 0.1% TFA, snap frozen in dry ice and stored in −80° C. until analysed by LCMS.
(§6) Samples were analyzed by LC-MS/MS on a Shimadzu Nexera uHPLC (Japan) coupled to a Triple Tof 5600 mass spectrometer (ABSCIEX, Canada) equipped with a duo electrospray ion source. One μL of each extract was injected onto a 2.1 mm×100 mm Zorbax C18 1.8 um column (Agilent) at 200 μL/min. […] SEQ ID NO:1 and SEQ ID NO:2 were quantified using the […] doubly charged molecular ion from m/z 510.270 to 510.325. The data was acquired using Analyst TF 1.6 and quantification was carried out using MultiQuant 2.1.1 software (ABSCIEX, Canada).

EA.hy926 cells = assay: Peptide stability study in EA.hy926 endothelial cells, LCMS (Example 4); type: in vitro ADME; conditions: peptide 9 μM, Opti-MEM
Method: as §4, §5, §6

NEP [5] = biological target: T1, NEP; conditions: Smith A I et al., (2016) Scientific reports 6:22413; cited from earlier work
ECE1 [6] = biological target: T2, ECE1; conditions: Smith A I et al., (2016) Scientific reports 6:22413; cited from earlier work
[7] = Ang II 10 nM + peptide 26 μM + rhACE2 0.05 ng/μL + MLN-4760 10 μM

CC(C)C[C@H](N[C@@H](Cc1cncn1Cc1cc(Cl)cc(Cl)c1)C(=O)O)C(=O)O [MLN-4760, reference compound]
Collagen III expression in the presence of ACE2 inhibitor MLN-4760 [1, 7]: 75±14%
IL-6 expression in the presence of MLN-4760 [1, 7]: no difference

Ang II: Angiotensin II, potent vasoconstrictor with fibrotic and inflammatory effects; stimulus in EA.hy926 cells (DRVYIHPF; Angiotensin-2; UniProt P01019 25-32, looked up) [reference compound]
Collagen III expression ([1]; EA.hy926 cells, 24 h, Ang II 10 nM alone, or Ang II and 2A (26 μM)): 141±30%
IL-6 expression ([1]; EA.hy926 cells, Ang II 10 nM, 24 h, band density normalised with beta-actin): 152±8%

H-KILGILFMSE-OH [scrambled control, reference compound]
decrease in Aβ1-21 and increase in Aβ1-12 (NEP [2]; Aβ40 cleavage): not observed
peak area corresponding to Aβ1-12 after 24 h (NEP [2]; Aβ40 cleavage, 24 h): 9.7×10^6±2.1×10^6 arbitrary units
amount of Aβ40 remaining after 4 h (peak area) (NEP [2]; NEP 0.05 ng/μL, Aβ40 0.10 μg/μL, 4 h): 6.4×10^6±1.7×10^6 arbitrary units

H-SLFELGKMIL-OH [SEQ ID NO:1, H2N-SLFELGKMIL-OH]
NEP activity (NEP [3]): significant increase
ECE1 activity (ECE1 [4]): no effect
amount remaining in the medium of HEK293 cells (HEK293 cells): 29%±3%
relative amount remaining in the medium of endothelial cells at 60 min (EA.hy926 cells): 23%±2.4%

H-SLFELGKMILQE-OH [SEQ ID NO:5]
NEP activity (NEP [3]): significant increase
ECE1 activity (ECE1 [4]): no effect

H-SLFELGKMILQETG-OH [SEQ ID NO:12]
NEP activity (NEP [3]): significantly stimulate
ECE1 activity (ECE1 [4]): significantly stimulate

H-SLFELGKMILQETGKN-OH [SEQ ID NO:11]
NEP activity (NEP [3]): significantly stimulate
ECE1 activity (ECE1 [4]): significantly stimulate

H-SLFELGKMILQETGKNPAKS-OH [SEQ ID NO:9]
NEP activity (NEP [3]): significantly stimulate
ECE1 activity (ECE1 [4]): significantly stimulate
NEP activity (previous studies) (NEP [5]): directly increase the activity
ECE1 activity (previous studies) (ECE1 [6]): directly increase the activity

rhACE2: Recombinant human ACE2 (Cat #933-ZN-010) purchased from R & D systems
Collagen III expression compared to cells treated with Ang II alone ([1]; Ang II 10 nM plus 2A 26 μM and/or ACE2 0.05 ng/μL, 24 h): significantly lower
IL-6 expression compared to cells treated with Ang II alone ([1]; Ang II 10 nM plus peptide 26 μM and/or rhACE2 0.05 ng/μL, 24 h): significantly lower
